Experimental data: US20250340529A1, “Heterocyclic Compounds as Immunomodulators of PD-L1 Interactions” (Ascletis BioScience Co., Ltd, priority 2021, published 2025)

Legend:
PD-1/PD-L1 = PD-1/PD-L1 (Homo sapiens (Human), UniProt Q9NZQ7); assay: PD-1/PD-L1 Homogeneous Time-Resolved Fluorescence (HTRF) binding assay; settings: 3 nM PD1, 10 nM PD-L1, 25° C., PBS pH 7.4
Description: PD-1/PD-L1 Homogeneous Time-Resolved Fluorescence (HTRF) Binding Assay
The assays were conducted in a standard black 384-well polystyrene plate with a final volume of 20 μL. Inhibitors were first serially diluted in DMSO and then added to the plate wells before the addition of other reaction components. The final concentration of DMSO in the assay was 1%. The assays were carried out at 25° C. in the PBS buffer (pH 7.4) with 0.05% Tween-20 and 0.1% BSA. Recombinant human PD-L1 protein (19-238) with a Histag at the C-terminus was purchased from AcroBiosystems (PD1-H5229). Recombinant human PD-1 protein (25-167) with Fe tag at the C-terminus was also purchased from AcroBiosystems (PD1-H5257). PD-L1 and PD-1 proteins were diluted in the assay buffer and 10 μL was added to the plate well. Plates were centrifuged and proteins were preincubated with inhibitors for 40 minutes. The incubation was followed by the addition of 10 μL of HTRF detection buffer supplemented with Europium cryptate-labeled anti-human IgG (PerkinElmer-AD0212) specific for Fe and anti-His antibody conjugated to SureLight®-Allophycocyanin (APC, PerkinElmer-AD0059H). After centrifugation, the plate was incubated at 25° C. for 60 min. before reading on a PHERAstar FS plate reader (665 nm/620 nm ratio). Final concentrations in the assay were—3 nM PD1, 10 nM PD-L1, 1 nM europium anti-human IgG and 20 nM anti-His-Allophycocyanin. IC50 determination was performed by fitting the curve of percent control activity versus the log of the inhibitor concentration.

[1] = target: extracellular domains of PD-L1 (Homo sapiens (Human), UniProt Q9NZQ7); assay: PD-L1 dimerization (biochemical protein-protein interaction assay); settings: PDL1-Eu and PDL1-A2, 25° C., 120 min
Description: Compounds were tested in biochemical protein-protein interaction assays to determine if they can specifically dimerize the extracellular domains of PD-L1. • (1) Dilute cpd 1:3 in succession in DMSO for each column for 10±0 pts (refer to dilution plate map) • (2) Transfer 0.2 μL cpds solution in each row to 384 assay plate using Echo, each column containing 2 replicates (refer to assay plate map). • (3) Add 20 μL prepared mixture include PDL1-Eu and PDL1-A2 solution to assay plate, centrifuge at 1000 rpm for 1 min. • (4) Incubate at 25° C. for 120 min. • (5) Read fluorescence signal on Envision 2104 plate reader. • (6) Read the Ratio (665 nm/615 nm) signal on Envision. • (7) Analyze the raw data using the equation (V. Data analysis)

PD-L1/CHO-K1 cells = PD-L1/CHO-K1 cells (Homo sapiens (Human), UniProt Q9NZQ7); assay: PD-L1 internalization (FACS, PD-L1/CHO-K1 cells); format: cell-based; settings: % activation of PD-L1 internalization = 1 − PD-L1 signal; 17 hours incubation
Description: Day 1. Seeding cells: Digest the PD-L1/CHO-K1 cells by trypsin in the flask, then counting the cell number and diluted to 1×10^5 cells/ml. Seeding cells to 6 well plate (Corning, #3516), 2 mL/well. The plates were incubated at 37° C., […] incubator for 24 hours.
Day 2. Preparing compounds and treated cells: Dilute GLC01-258 from 15 mM to 0.5 mM by using DMSO, and 15 mM compound were serial diluted from 15 mM˜15 nM by DMSO, Then 500 times dilute the compounds by using assay buffer. Prepare 0.2% DMSO in assay buffer used for Vehicle control and low control. Take out the plates, aspirated the medium and thrown away. Adding 2 mL of the diluted compounds, vehicle control and low control to corresponding wells. Then incubated the plates for 17 hours at 37° C., 5% CO2 incubator.
Day 3. Preparing samples for FACS: After 17 hours incubation, discarded medium and washed by the PBS. Cells in each well were Digested by trypsin. Centrifuge and discard the supernatant, then wash the cells by DPBS (Ca^2+, Mg^2+ free) for twice. 10 fold dilute the antibody (PE-conjugated mouse anti-human CD274) by DPBS, then adding the staining solution to compounds treated samples and vehicle control sample. The low control only add DPBS without antibody. Incubate the plates at room temperature for 20 minutes and protect from light. After 20 minutes, wash the samples by DPBS for twice. Then centrifuge and discard the supernatant. Resuspend cells by 300 uL DPBS and transfer the samples to 5 mL Polystryrene Round-Bottom Tube (Falcon, #352054), then tested by BD FACSCanto. […].
Set the PD-L1 signal of vehicle control as 100%, PD-L1 signal of Low control as 0%. Then calculate the compound treated samples' PD-L1 signal
0% PD-L1 signal: Low control which stained without anti-CD274
100% PD-L1 Signal: vehicle control which stained with anti-CD274
The % activation of PD-L1 Internalization=1−PD-L1 signal of compound.

Sequence of PD-L1/CHO-K1 cells (Q9NZQ7 19-290): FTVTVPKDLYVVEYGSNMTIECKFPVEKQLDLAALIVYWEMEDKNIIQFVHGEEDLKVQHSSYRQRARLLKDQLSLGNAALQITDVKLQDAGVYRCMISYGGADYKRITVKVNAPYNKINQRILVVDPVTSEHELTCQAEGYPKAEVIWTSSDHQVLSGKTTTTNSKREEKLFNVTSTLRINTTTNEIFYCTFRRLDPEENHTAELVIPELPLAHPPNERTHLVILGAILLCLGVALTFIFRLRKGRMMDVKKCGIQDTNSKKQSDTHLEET
Sequence of PD-1/PD-L1 (Q9NZQ7 19-238): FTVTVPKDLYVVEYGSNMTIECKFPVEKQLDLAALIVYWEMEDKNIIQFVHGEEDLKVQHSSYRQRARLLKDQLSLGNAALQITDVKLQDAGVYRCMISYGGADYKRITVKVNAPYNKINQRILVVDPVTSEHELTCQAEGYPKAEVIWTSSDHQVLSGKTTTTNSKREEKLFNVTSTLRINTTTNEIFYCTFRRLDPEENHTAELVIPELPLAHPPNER
Sequence of extracellular domains of PD-L1 (Q9NZQ7 19-238): as above

SMILES	IC50 (PD-1/PD-L1) [nM]	EC50 [1] [nM]	Internalization (PD-L1/CHO-K1 cells) [%]
O=C1COc2cc(-c3cccc(-c4cccc(-c5ccc6c(c5)OCC(=O)N6C[C@@H]5CCCN5)c4Cl)c3Cl)ccc2N1C[C@@H]1CCCN1 [Compound 411, 7,7′-(2,2′-dichloro-[1,1′-biphenyl]-3,3′-diyl)bis(4-(((S)-pyrrolidin-2-yl)methyl)-2H-benzo[b][1,4]oxazin-3(4H)-one)]	6.14	357	66.90
O=C(O)[C@@H]1C[C@@H](O)CN1CCN1C(=O)COc2cc(-c3cccc(-c4cccc(-c5ccc6c(c5)OCC(=O)N6CCN5C[C@H](O)C[C@H]5C(=O)O)c4Cl)c3Cl)ccc21 [Compound 454]	1.42	326	5.20
O=C1COc2cc(-c3cccc(-c4cccc(-c5ccc6c(c5)OCC(=O)N6C[C@@H]5C[C@@H](O)CN5)c4Cl)c3Cl)ccc2N1C[C@@H]1C[C@@H](O)CN1 [Compound 472]	5.27	359	17.20
O=C(O)C[C@H](CO)NCCN1C(=O)COc2cc(-c3cccc(-c4cccc(-c5ccc6c(c5)OCC(=O)N6CCN[C@@H](CO)CC(=O)O)c4Cl)c3Cl)ccc21 [Compound 528]	5.04	175	13.30
C[C@H]1CC[C@@H](CN2C(=O)COc3cc(-c4cccc(-c5cccc(-c6ccc7c(c6)OCC(=O)N7C[C@@H]6CC[C@H](C)N6)c5Cl)c4Cl)ccc32)N1 [Compound 535]	4.41	354	21.00
NCCN1C(=O)COc2cc(-c3cccc(-c4cccc(-c5ccc6c(c5)OCC(=O)N6CCN)c4Cl)c3Cl)ccc21 [Compound 538]	8.18		3.60
O=C1COc2cc(-c3cccc(-c4cccc(-c5ccc6c(c5)OCC(=O)N6C[C@H]5NC6CCC5C6)c4Cl)c3Cl)ccc2N1C[C@H]1NC2CCC1C2 [Compound 539]	7.73		11.60
O=C1COc2cc(-c3cccc(-c4cccc(-c5ccc6c(c5)OCC(=O)N6C[C@@H]5CC6(CC6)CN5)c4Cl)c3Cl)ccc2N1C[C@@H]1CC2(CC2)CN1 [Compound 540]	10.5		10.60
O=C1COc2cc(-c3cccc(-c4cccc(-c5ccc6c(c5)OCC(=O)N6CCN[C@@H](CO)C(=O)O)c4Cl)c3Cl)ccc2N1 [Compound 542]	5.24		3.30
O=C(O)[C@H](CO)NCCN1C(=O)COc2c1ccc(-c1cccc(-c3cccc(-c4ccc5c(c4F)OCC(=O)N5CCN[C@@H](CO)C(=O)O)c3Cl)c1Cl)c2F [Compound 557]	5.33		20.30
O=C(O)[C@H](CO)NCCN1C(=O)COc2cc(-c3cccc(-c4cccc(-c5cc(F)c6c(c5)OCC(=O)N6CCN[C@@H](CO)C(=O)O)c4Cl)c3Cl)cc(F)c21 [Compound 561]	8.95		5.30

Now from value to compound:

IC50 (PD-1/PD-L1) [nM]	EC50 [1] [nM]	Internalization (PD-L1/CHO-K1 cells) [%]	SMILES
4.81		7.80	C[C@@H](O)[C@H](NCCN1C(=O)COc2cc(-c3cccc(-c4cccc(-c5ccc6c(c5)OCC(=O)N6CCN[C@H](C(=O)O)[C@@H](C)O)c4Cl)c3Cl)ccc21)C(=O)O [Compound 545]
3.96	225	3.00	C[C@@H](CN1C(=O)COc2cc(-c3cccc(-c4cccc(-c5ccc6c(c5)OCC(=O)N6C[C@H](C)N[C@@H](CO)C(=O)O)c4Cl)c3Cl)ccc21)N[C@@H](CO)C(=O)O [Compound 550]
2.64		3.10	C[C@H](O)[C@@H](NCCN1C(=O)COc2cc(-c3cccc(-c4cccc(-c5ccc6c(c5)OCC(=O)N6CCN[C@@H](C(=O)O)[C@H](C)O)c4Cl)c3Cl)ccc21)C(=O)O [Compound 551]
7.25		4.90	O=C(O)[C@@H](CCO)NCCN1C(=O)COc2cc(-c3cccc(-c4cccc(-c5ccc6c(c5)OCC(=O)N6CCN[C@H](CCO)C(=O)O)c4Cl)c3Cl)ccc21 [Compound 552]
7.78		3.10	O=C(O)[C@H](CCO)NCCN1C(=O)COc2cc(-c3cccc(-c4cccc(-c5ccc6c(c5)OCC(=O)N6CCN[C@@H](CCO)C(=O)O)c4Cl)c3Cl)ccc21 [Compound 560]
7.18	37.7	25.50	C[C@H](CN1C(=O)COc2cc(-c3cccc(-c4cccc(-c5ccc6c(c5)OCC(=O)N6C[C@@H](C)N[C@@H](CO)C(=O)O)c4Cl)c3Cl)ccc21)N[C@@H](CO)C(=O)O [Compound 563, (2S,2'S)-2,2′-(((2R,2′R)-((2,2′-dichloro-[1,1′-biphenyl]-3,3′-diyl)bis(3-oxo-2,3-dihydro-4H-benzo[b][1,4]oxazine-7,4-diyl))bis(propane-1,2-diyl))bis(azanediyl))bis(3-hydroxypropanoic acid)]
10.9	130	39.00	Cc1c(-c2ccc3c(c2)OCC(=O)N3CCN[C@@H](CO)C(=O)O)cccc1-c1cccc(-c2ccc3c(c2)OCC(=O)N3CCN[C@@H](CO)C(=O)O)c1C [Compound 585]
7.35	154	2.00	COC[C@H](NCCN1C(=O)COc2cc(-c3cccc(-c4cccc(-c5ccc6c(c5)OCC(=O)N6CCN[C@@H](COC)C(=O)O)c4Cl)c3Cl)ccc21)C(=O)O [Compound 588]
